Source: patent US20200261443A1, “Use of Anti-Ischemic Compounds in Treating Acute-On-Chronic Liver Failure” (Martin Pharmaceuticals Inc., priority 2019, published 2020)
“Also recorded” adds a separate entry of the source. Where two headings read alike, the source gives them in different places.

Key:
[1] = TMZ study in suspected ACLF: white blood cell count, platelet count, creatinine clearance; assay type: in vivo, human; conditions: throughout the study, TMZ versus control groups; dihydrochloride
Description: A three-arm, randomized, controlled study enrolled 133 subjects presenting with acute decompensation of cirrhosis and suspected ACLF. Included patients presented with a prothrombin time extended by 4-6 seconds or an international normalized ratio of ≥1.5 or any degree of hepatic encephalopathy as assessed by the West Haven criteria.
In view of the overall disturbed immunlological state and the coagulopathy that is common in ACLF, it is important to asertain whether trimetazidine poses an additional risk to ACLF patients in this regard.

[2] = system: liver lipid homeostasis; conditions: human normal obese subjects; cited from earlier work
[3] = system: patients with acute decompensation of cirrhosis and suspected ACLF; assay: Three-arm, randomized, controlled TMZ study in suspected ACLF: mortality; assay type: in vivo, human; conditions: for Treatment effect on Day 90 mortality: dihydrochloride
Description: A three-arm, randomized, controlled study enrolled 133 subjects presenting with acute decompensation of cirrhosis and suspected ACLF.
Patient were divided into two groups by Child Pugh score: Class A or B (<10) and Class C (≥10).
[…] 1. The ACLF3 group was not analyzed because of the small numbers.

[4] = system: carbon tetrachloride-induced fulminant liver failure; conditions: animal model; cited from earlier work
[5] = system: non-alcoholic steatohepatitis; conditions: human population; cited from earlier work
[6] = cited from earlier work
[7] = Day 30, CP < 10, TMZ arm = TMZ + LOLA + SoC, LOLA arm = LOLA + SoC

COc1ccc(CN2CCNCC2)c(OC)c1OC.Cl.Cl [TMZ, 1-(2,3,4-trimethoxybenzyl)piperazine dihydrochloride]
Estimated creatinine clearance rate [1]: does not Affect; also recorded: no difference between the TMZ and control groups | Platelet count / thrombocytopenia [1]: does not Affect; also recorded: not causing thrombocytopenia; also recorded: no difference between the TMZ and control groups | White blood cell levels [1]: does not Affect; also recorded: no meaningful difference between the TMZ and control groups | Effect on liver lipid homeostasis [2]: improve liver lipid homeostasis | Treatment effect on Day 90 mortality ([3]; ACLF1 population): drug effect was visible; also recorded: Positive results | Treatment effect on Day 90 mortality ([3]; ACLF2 population): drug effect was visible; also recorded: Positive results | Treatment effect on Day 90 mortality ([3]; ACLF population by EASL-CLIF criteria, worst case imputation): highly statistically significant difference; also recorded: robust effect | Treatment effect on Day 90 mortality ([3]; AD population by EASL-CLIF criteria, worst case imputation): not even a trend towards an effect; also recorded: ineffective | 30- and 90-day mortality ([3]; Child Pugh Class C (≥10) subjects): substantial and statistically significant reductions | Alive (number of patients) [3, 7]: 9 | Dead (number of patients) [3, 7]: 2 | Dead (percent of patients) [3, 7]: 18% | Alive (number of patients) ([3]; Day 30, CP ≥ 10): 20 | Dead (number of patients) ([3]; Day 30, CP ≥ 10): 5 | Dead (percent of patients) ([3]; Day 30, CP ≥ 10): 20% | Alive (number of patients) ([3]; Day 90, CP < 10): 7 | Dead (number of patients) ([3]; Day 90, CP < 10): 4 | Dead (percent of patients) ([3]; Day 90, CP < 10): 36% | Alive (number of patients) ([3]; Day 90, CP ≥ 10): 16 | Dead (number of patients) ([3]; Day 90, CP ≥ 10): 9 | Dead (percent of patients) ([3]; Day 90, CP ≥ 10): 36% | Effectiveness in fulminant liver failure [4]: effectiveness | Effect on parameters associated with non-alcoholic steatohepatitis [5]: improve certain parameters associated with non-alcoholic steatohepatitis | Solubility in water / aqueous solution ([6]; dihydrochloride): highly soluble in water | Solubility in water / aqueous solution ([6]; listed as dihydrochloride form of TMZ, dihydrochloride): very soluble

COc1ccc(CN2CCNCC2)c(OC)c1OC [neutral form of TMZ, 1-(2,3,4-trimethoxybenzyl)piperazine]
Solubility in organic environments [6]: soluble in certain organic environments | Solubility in water / aqueous solution [6]: only sparingly soluble in aqueous solution

L-ornithine-L-aspartate [LOLA]
Alive (number of patients) [3, 7]: 10 | Alive (number of patients) ([3]; Day 30, CP ≥ 10): 16 | Alive (number of patients) ([3]; Day 90, CP < 10): 6 | Alive (number of patients) ([3]; Day 90, CP ≥ 10): 6
